How the values were obtained:
FADD−/− Jurkat cells = test: Necroptosis inhibition assay, TNF-α-induced necroptosis (CellTiter-Glo 2.0); format: cell-based, human; conditions: TNF-α 15 ng/mL; for Necroptosis inhibition assay (Rescue %) 1 μM: compound 1 μM; for Necroptosis inhibition assay (Rescue %) 10 μM: compound 10 μM
Outline: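 Tested at three fixed concentrations (0.1, 1, 10 μM final) with a 30-minute room-temperature preincubation ahead of 15 ng/mL TNF-α challenge lasting 20 to 24 hours. Inhibition rate and cytotoxicity derive from ATP luminescence.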

MLKL [1] = biological target: T1, MLKL (Homo sapiens, UniProt Q8NB16); test: MLKL degradation assay in HepG2 cell line (western blot); format: cell-based; design: endogenous in cells; host or cells: HepG2 or HaCaT; conditions: cell line not given; for Degradation assay (Degradation %) 1 μM: compound 1 μM; for Degradation assay (Degradation %) 10 μM: compound 10 μM
T1 sequence (Q8NB16 1-471): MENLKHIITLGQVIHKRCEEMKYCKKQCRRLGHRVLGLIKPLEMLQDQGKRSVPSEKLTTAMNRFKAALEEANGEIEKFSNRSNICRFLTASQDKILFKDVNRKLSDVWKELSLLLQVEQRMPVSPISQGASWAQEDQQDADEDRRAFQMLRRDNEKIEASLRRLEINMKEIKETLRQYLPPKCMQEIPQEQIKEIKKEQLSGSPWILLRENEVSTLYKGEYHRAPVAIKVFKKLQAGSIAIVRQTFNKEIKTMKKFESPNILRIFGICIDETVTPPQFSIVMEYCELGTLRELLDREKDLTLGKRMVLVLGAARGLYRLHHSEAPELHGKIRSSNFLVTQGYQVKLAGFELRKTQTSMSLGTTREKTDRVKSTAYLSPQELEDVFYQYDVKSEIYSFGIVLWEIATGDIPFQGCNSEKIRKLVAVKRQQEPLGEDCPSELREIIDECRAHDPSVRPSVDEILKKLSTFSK
Outline: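 Degradation is judged from MLKL band intensity on immunoblots of HepG2 lysates taken after 20-24 hours of compound at final 1 or 10 μM.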

MLKL [2] = biological target: T1, MLKL; test: Measurement of binding affinity with MLKL receptor (competitive binding assay, Kd); design: made in house; host or cells: HEK 293 cell line (T7 phage in E. coli BL21-derived host is also described)
Outline: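 Competitive displacement of MLKL, expressed in HEK 293 cells and DNA-tagged for qPCR, from immobilized ligand on biotin-blocked beads. Compounds were added from 111× DMSO stocks (final DMSO 0.9%). Kinase left in the eluates was quantified by qPCR to give Kd.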

SMILES	Necroptosis inhibition assay (Rescue %) 1 μM (FADD−/− Jurkat cells) [%]	Necroptosis inhibition assay (Rescue %) 10 μM (FADD−/− Jurkat cells) [%]	Degradation assay (Degradation %) 1 μM (MLKL [1]) [%]	Degradation assay (Degradation %) 10 μM (MLKL [1]) [%]	Kd (MLKL [2]) [nM]	Necroptosis inhibition assay (Rescue %) 1 μM (FADD−/− Jurkat cells; FADD−/− Jurkat cells) [%]	Necroptosis inhibition assay (Rescue %) 10 μM (FADD−/− Jurkat cells; FADD−/− Jurkat cells) [%]
Nc1ncc(-c2cnn(C3CCN(CCOCCOCCOCCNC(=O)C4CCN(c5ccc6c(c5)C(=O)N(C5CCC(=O)NC5=O)C6=O)CC4)CC3)c2)nc1C(=O)O[C@@H](C(=O)Nc1ccc(F)cc1)c1ccccc1 (stereo partly drawn) [TDH-140, (R)-2-((4-fluorophenyl)amino)-2-oxo-1-phenylethyl 3-amino-6-(1-(1-(1-(1-(2-(2,6-dioxopiperidin-3-yl)-1,3-dioxoisoindolin-5-yl)piperidin-4-yl)-1-oxo-5,8,11-trioxa-2-azatridecan-13-yl)piperidin-4-yl)-1H-pyrazol-4-yl)pyrazine-2-carboxylate]	21.32	81.41	41.81	83.53	9.2	–	–
Nc1ncc(-c2cnn(C3CCN(CCC4CCN(C(=O)C5CN(C6=CC(=O)N(C7CCC(=O)NC7=O)C6=O)C5)CC4)CC3)c2)nc1C(=O)O[C@@H](C(=O)Nc1ccc(F)cc1)c1ccccc1 (stereo partly drawn) [TDH-531, (R)-2-((4-fluorophenyl)amino)-2-oxo-1-phenylethyl 3-amino-6-(1-(1-(2-(1-(1-(1-(2,6-dioxopiperidin-3-yl)-2,5-dioxo-2,5-dihydro-1H-pyrrol-3-yl)azetidine-3-carbonyl)piperidin-4-yl)ethyl)piperidin-4-yl)-1H-pyrazol-4-yl)pyrazine-2-carboxylate]	–	–	67.64	53.49	0.28	16.12	15.34
Nc1ncc(-c2cnn(C3CCN(CC4CCN(CC(=O)NC5CCN(c6ccc7c(c6)C(=O)N(C6CCC(=O)NC6=O)C7=O)CC5)CC4)CC3)c2)nc1C(=O)OC(C(=O)Nc1ccc(F)cc1)c1ccccc1 (stereo not shown) [TDH-272, 2-((4-fluorophenyl)amino)-2-oxo-1-phenylethyl 3-amino-6-(1-(1-((1-(2-((1-(2-(2,6-dioxopiperidin-3-yl)-1,3-dioxoisoindolin-5-yl)piperidin-4-yl)amino)-2-oxoethyl)piperidin-4-yl)methyl)piperidin-4-yl)-1H-pyrazol-4-yl)pyrazine-2-carboxylate]	60.73	72.92	23.54	44.2	13	–	–
Nc1ncc(-c2cnn(C3CCN(CCC4CCN(C(=O)COc5cccc6c5C(=O)N(C5CCC(=O)NC5=O)C6=O)CC4)CC3)c2)nc1C(=O)O[C@@H](C(=O)Nc1ccc(F)cc1)c1ccccc1 (stereo partly drawn) [TDH-200, (R)-2-((4-fluorophenyl)amino)-2-oxo-1-phenylethyl 3-amino-6-(1-(1-(2-(1-(2-((2-(2,6-dioxopiperidin-3-yl)-1,3-dioxoisoindolin-4-yl)oxy)acetyl)piperidin-4-yl)ethyl)piperidin-4-yl)-1H-pyrazol-4-yl)pyrazine-2-carboxylate]	76.41	44.64	74.03	60.19	1	–	–
Nc1ncc(-c2cn(C3CCN(CC4CCN(c5cccc6c5C(=O)N(C5CCC(=O)NC5=O)C6=O)CC4)CC3)nn2)nc1C(=O)OC(C(=O)Nc1ccc(F)cc1)c1ccccc1 (stereo not shown) [TDH-225, 2-((4-fluorophenyl)amino)-2-oxo-1-phenylethyl 3-amino-6-(1-(1-((1-(2-(2,6-dioxopiperidin-3-yl)-1,3-dioxoisoindolin-4-yl)piperidin-4-yl)methyl)piperidin-4-yl)-1H-1,2,3-triazol-4-yl)pyrazine-2-carboxylate]	55.04	49.01	36.29	25.24	8	–	–
Nc1ncc(-c2cnn(C3CCN(C(=O)CCC4CCN(C(=O)CC5CCN(c6ccc7c(c6)C(=O)N(C6CCC(=O)NC6=O)C7=O)CC5)CC4)CC3)c2)nc1C(=O)O[C@@H](C(=O)Nc1ccc(F)cc1)c1ccccc1 (stereo partly drawn) [TDH-430, (R)-2-((4-fluorophenyl)amino)-2-oxo-1-phenylethyl 3-amino-6-(1-(1-(3-(1-(2-(1-(2-(2,6-dioxopiperidin-3-yl)-1,3-dioxoisoindolin-5-yl)piperidin-4-yl)acetyl)piperidin-4-yl)propanoyl)piperidin-4-yl)-1H-pyrazol-4-yl)pyrazine-2-carboxylate]	–	–	65.96	36.66	2.2	15.88	14.13
Nc1ncc(-c2cnn(C3CCN(CCOCCNC(=O)CNc4ccc5c(c4)C(=O)N(C4CCC(=O)NC4=O)C5=O)CC3)c2)nc1C(=O)O[C@@H](C(=O)Nc1ccc(F)cc1)c1ccccc1 (stereo partly drawn) [TDH-125, (R)-2-((4-fluorophenyl)amino)-2-oxo-1-phenylethyl 3-amino-6-(1-(1-(2-(2-(2-((2-(2,6-dioxopiperidin-3-yl)-1,3-dioxoisoindolin-5-yl)amino)acetamido)ethoxy)ethyl)piperidin-4-yl)-1H-pyrazol-4-yl)pyrazine-2-carboxylate]	21.27	54.55	30.1	69.02	3.2	–	–
Nc1ncc(-c2cnn(C3CCN(CCOCCOCCNC(=O)C4CCN(c5ccc6c(c5)C(=O)N(C5CCC(=O)NC5=O)C6=O)CC4)CC3)c2)nc1C(=O)O[C@@H](C(=O)Nc1ccc(F)cc1)c1ccccc1 (stereo partly drawn) [TDH-111, (R)-2-((4-fluorophenyl)amino)-2-oxo-1-phenylethyl 3-amino-6-(1-(1-(2-(2-(2-(1-(2-(2,6-dioxopiperidin-3-yl)-1,3-dioxoisoindolin-5-yl)piperidine-4-carboxamido)ethoxy)ethoxy)ethyl)piperidin-4-yl)-1H-pyrazol-4-yl)pyrazine-2-carboxylate]	45.17	78.08	4.54	28.85	5.3	–	–
Nc1ncc(-c2cnn(C3CCN(CCOCCOCCNC(=O)COc4cccc5c4C(=O)N(C4CCC(=O)NC4=O)C5=O)CC3)c2)nc1C(=O)O[C@@H](C(=O)Nc1ccc(F)cc1)c1ccccc1 (stereo partly drawn) [TDH-135, (R)-2-((4-fluorophenyl)amino)-2-oxo-1-phenylethyl 3-amino-6-(1-(1-(2-(2-(2-(2-((2-(2,6-dioxopiperidin-3-yl)-1,3-dioxoisoindolin-4-yl)oxy)acetamido)ethoxy)ethoxy)ethyl)piperidin-4-yl)-1H-pyrazol-4-yl)pyrazine-2-carboxylate]	46.82	33.77	23.45	57.93	0.91	–	–
Nc1ncc(-c2cnn(C3CCN(CCCCCCNC(=O)C4CCN(c5cccc6c5C(=O)N(C5CCC(=O)NC5=O)C6=O)CC4)CC3)c2)nc1C(=O)O[C@@H](C(=O)Nc1ccc(F)cc1)c1ccccc1 (stereo partly drawn) [TDH-108, (R)-2-((4-fluorophenyl)amino)-2-oxo-1-phenylethyl 3-amino-6-(1-(1-(6-(1-(2-(2,6-dioxopiperidin-3-yl)-1,3-dioxoisoindolin-4-yl)piperidine-4-carboxamido)hexyl)piperidin-4-yl)-1H-pyrazol-4-yl)pyrazine-2-carboxylate]	75.49	43.94	48.06	43.66	4.4	–	–
Nc1ncc(-c2cn(C3CCN(CC4CCN(C(=O)CNc5cccc6c5C(=O)N(C5CCC(=O)NC5=O)C6=O)CC4)CC3)nn2)nc1C(=O)OC(C(=O)Nc1ccc(F)cc1)c1ccccc1 (stereo not shown) [TDH-224, 2-((4-fluorophenyl)amino)-2-oxo-1-phenylethyl 3-amino-6-(1-(1-((1-((2-(2,6-dioxopiperidin-3-yl)-1,3-dioxoisoindolin-4-yl)glycyl)piperidin-4-yl)methyl)piperidin-4-yl)-1H-1,2,3-triazol-4-yl)pyrazine-2-carboxylate]	63.63	67.66	49.26	56.93	19	–	–
